This passage reports TGI and GI50 results from PubChem BioAssay (NCI).

Molecules are shown by their SMILES.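 Following 48 hours of exposure in 96-well plates, responses at five concentrations were used to interpolate endpoints linearly. The concentration for 50% growth inhibition is given as GI50. TGI: total growth inhibition.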

Some test systems named below: 786-0 renal; OVCAR-4 ovarian; RPMI-8226 leukemia; SK-MEL-2 melanoma; SNB-19 CNS; SNB-75 CNS; SW-620 colon; UACC-257 melanoma; UACC-62 melanoma; SK-OV-3 ovarian.
Common to all, as to assay: NCI anticancer screen, dose series, 48 h

With `COC(=O)C1CCc2nnc(-c3ccccc3)n21` (configuration not stated), the TGI in the test with 786-0 renal, in the test on OVCAR-4 ovarian, in the test with RPMI-8226 leukemia, with SK-MEL-2 melanoma, with SNB-19 CNS and with SNB-75 CNS was above 100 µM each time. Besides, the TGI with SW-620 colon, with UACC-257 melanoma and in the test on UACC-62 melanoma was above 100 µM throughout.
For `CCC[CH2][Sn]1([CH2]CCC)[S]CC[N]1S(=O)(=O)c1ccc(C)cc1`, the GI50 in the test with 786-0 renal was 1.26 µM; with OVCAR-4 ovarian, 1.85 µM; with RPMI-8226 leukemia, 0.386 µM; with SK-MEL-2 melanoma, 1.39 µM; in the test with SNB-19 CNS, 1.45 µM; in the test with SNB-75 CNS it was 1.13 µM. The GI50 with UACC-257 melanoma was 1.23 µM; in the test with UACC-62 melanoma it was 1.47 µM. For the same compound, the TGI with 786-0 renal was found to be 2.53 µM; in the test with OVCAR-4 ovarian it was 3.27 µM; in the test on RPMI-8226 leukemia, 2.01 µM; in the test on SK-MEL-2 melanoma, 2.73 µM; in the test with SNB-19 CNS, 2.75 µM; in the test with SNB-75 CNS it was 2.38 µM. The TGI is 2.5 µM with UACC-257 melanoma and 3.13 µM in the test on UACC-62 melanoma.
On to `CO/N=C(\COc1ccc2oc(-c3ccccc3)cc(=O)c2c1)c1ccc(F)cc1`, for which the GI50 was 21.3 µM with 786-0 renal; 22.3 µM in the test on OVCAR-4 ovarian; 24.6 µM in the test with RPMI-8226 leukemia; 24.4 µM with SK-MEL-2 melanoma; 20 µM in the test with SK-OV-3 ovarian; 17.4 µM in the test with SNB-75 CNS. In addition, the GI50 in the test with SW-620 colon is 30.3 µM; with UACC-257 melanoma, 20.8 µM; with UACC-62 melanoma it was 21.9 µM. The TGI in the test with 786-0 renal was 43.7 µM; in the test with OVCAR-4 ovarian, 55.8 µM; with RPMI-8226 leukemia it was above 100 µM; in the test on SK-MEL-2 melanoma it was 73.3 µM; in the test on SK-OV-3 ovarian, 44.8 µM; in the test with SNB-75 CNS, 40.6 µM. In addition, the values for the TGI in the test on SW-620 colon, with UACC-257 melanoma and in the test on UACC-62 melanoma were above 100 µM, 46.7 µM and 86.5 µM, respectively.
Regarding `CO[C@@]1(c2ccccc2)O[C@H]2OCCC2[C@H]1c1ccc(Cl)cc1` (some centres not stated), the TGI with 786-0 renal is above 100 µM; with OVCAR-4 ovarian, 91.1 µM; in the test with RPMI-8226 leukemia, above 100 µM; in the test on SK-MEL-2 melanoma, 80.9 µM; in the test on SNB-19 CNS it was above 100 µM; with SNB-75 CNS it was above 100 µM. In addition, the TGI was above 100 µM with SW-620 colon, 44.6 µM in the test with UACC-257 melanoma and above 100 µM in the test with UACC-62 melanoma.
With `CC1=CCCC2C(C=O)(C1)CC(C)C2(CO)CC/C(=C/CO)CO` (configuration not stated), the TGI in the test with 786-0 renal, in the test on RPMI-8226 leukemia, with SK-OV-3 ovarian, with SNB-75 CNS, in the test on SW-620 colon and in the test on UACC-257 melanoma was above 100 µM each time. This compound also showed a TGI in the test on UACC-62 melanoma above 100 µM.
In the case of `CCOC(=O)C1=C(C)NC(c2ccco2)=C(C#N)C1c1cccc([N+](=O)[O-])c1` (configuration not stated), the GI50 with 786-0 renal is 0.0104 µM; in the test on OVCAR-4 ovarian, 4.53 µM; with RPMI-8226 leukemia it was 0.0658 µM; with SK-MEL-2 melanoma it was 0.0115 µM; with SK-OV-3 ovarian, 0.738 µM; in the test with SNB-19 CNS it was 0.0253 µM. The figures for the GI50 in the test with SW-620 colon and in the test on UACC-257 melanoma were 0.0101 µM and 0.0882 µM, respectively. The TGI came to 13.5 µM with 786-0 renal; 74.8 µM in the test with OVCAR-4 ovarian; 24.3 µM in the test with SK-MEL-2 melanoma; 70.9 µM in the test on SK-OV-3 ovarian; 1.73 µM in the test with SW-620 colon; 26.2 µM in the test with UACC-257 melanoma. Also, in the test on UACC-62 melanoma, the TGI was 2.27 µM.
As to `COc1c(N2CCN(CN3C(=O)C(=Nc4ccc(S(=O)(=O)Nc5ncccn5)cc4)c4cc(Cl)ccc43)C(C)C2)c(F)cc2c(=O)c(C(=O)O)cn(C3CC3)c12` (configuration not stated), the GI50 is 19.2 µM in the test on 786-0 renal; 16.8 µM in the test on RPMI-8226 leukemia; 26.6 µM with SK-MEL-2 melanoma; 40 µM in the test on SK-OV-3 ovarian; 15.7 µM with SNB-19 CNS; 19.1 µM with SNB-75 CNS. Also, the GI50 in the test on SW-620 colon is 10.7 µM; with UACC-257 melanoma it was 6.77 µM; in the test with UACC-62 melanoma, 13.7 µM. Also, the TGI in the test with 786-0 renal was above 50 µM; in the test with RPMI-8226 leukemia, above 50 µM; in the test with SK-MEL-2 melanoma it was above 50 µM; in the test on SK-OV-3 ovarian, above 50 µM; with SNB-19 CNS it was 49.4 µM; in the test with SNB-75 CNS it was above 50 µM. Also, the TGI was 44.7 µM in the test with SW-620 colon, 17.7 µM with UACC-257 melanoma and 49.9 µM with UACC-62 melanoma.
As for `CCOC(=O)/C=C/c1cccc(F)c1`, the TGI in the test on 786-0 renal, with OVCAR-4 ovarian, in the test with RPMI-8226 leukemia, in the test on SK-MEL-2 melanoma, in the test on SNB-19 CNS and with SNB-75 CNS was above 100 µM each time. In addition, the TGI in the test with SW-620 colon, with UACC-257 melanoma and with UACC-62 melanoma was above 100 µM in each case.
Regarding `CC[C@]12C=CCN3CCC4(c5cc([C@@]6(C(=O)OC)CC7CN(CCc8c6[nH]c6ccccc86)CC6CCCCC67)c(OC)cc5N(C)C4[C@](O)(C(=O)OC)C1OC(C)=O)[C@@H]32` (some centres not stated), the TGI with 786-0 renal came out at 11 µM; with OVCAR-4 ovarian, 18.3 µM; with RPMI-8226 leukemia, 61.3 µM; with SK-MEL-2 melanoma, 0.145 µM; in the test on SNB-19 CNS, 15.4 µM; in the test on SW-620 colon it was 15.6 µM. For the same compound, the TGI with UACC-257 melanoma was found to be 18.8 µM; in the test on UACC-62 melanoma it was 1.7 µM.
Take `COCCNc1cncc(C(N)=O)c1`: the TGI in the test with 786-0 renal, in the test with OVCAR-4 ovarian, in the test with SK-MEL-2 melanoma, in the test on SK-OV-3 ovarian, in the test on SNB-19 CNS and with SNB-75 CNS was above 100 µM in each case. The TGI in the test on SW-620 colon, with UACC-257 melanoma and in the test on UACC-62 melanoma was above 100 µM each time.
`O=C1N=C(Nc2nc(-c3csc(NC4=NC(=O)/C(=C\c5ccccc5)S4)n3)cs2)S/C1=C/c1ccccc1`: the GI50 in the test with 786-0 renal was 9.54 µM; in the test with RPMI-8226 leukemia, 0.629 µM; in the test on SK-MEL-2 melanoma, above 50 µM; in the test on SNB-19 CNS it was 49.1 µM; with SW-620 colon, 31.7 µM; in the test with UACC-257 melanoma it was 12.2 µM. The GI50 in the test on UACC-62 melanoma was 6.4 µM. Also, the TGI with 786-0 renal was 34.9 µM; with RPMI-8226 leukemia, 3.35 µM; in the test with SK-MEL-2 melanoma, above 50 µM; in the test on SNB-19 CNS, above 50 µM; with SW-620 colon it was above 50 µM; with UACC-257 melanoma, 28.1 µM. This compound had a TGI in the test with UACC-62 melanoma of 18.5 µM.
